# US11746100B2 (GLOBAL BLOOD THERAPEUTICS, INC., priority 2020, dated 2023)
# Target: T1, human ferroportin (Homo sapiens, UniProt Q9NP59)
# T1 construct: luciferase reporter (read with the Nano-Glo Luciferase Assay System); expressed in transfected cells; host or cells: CHO cells, stably transfected, expression induced with doxycycline
# T1 sequence (Q9NP59 1-571): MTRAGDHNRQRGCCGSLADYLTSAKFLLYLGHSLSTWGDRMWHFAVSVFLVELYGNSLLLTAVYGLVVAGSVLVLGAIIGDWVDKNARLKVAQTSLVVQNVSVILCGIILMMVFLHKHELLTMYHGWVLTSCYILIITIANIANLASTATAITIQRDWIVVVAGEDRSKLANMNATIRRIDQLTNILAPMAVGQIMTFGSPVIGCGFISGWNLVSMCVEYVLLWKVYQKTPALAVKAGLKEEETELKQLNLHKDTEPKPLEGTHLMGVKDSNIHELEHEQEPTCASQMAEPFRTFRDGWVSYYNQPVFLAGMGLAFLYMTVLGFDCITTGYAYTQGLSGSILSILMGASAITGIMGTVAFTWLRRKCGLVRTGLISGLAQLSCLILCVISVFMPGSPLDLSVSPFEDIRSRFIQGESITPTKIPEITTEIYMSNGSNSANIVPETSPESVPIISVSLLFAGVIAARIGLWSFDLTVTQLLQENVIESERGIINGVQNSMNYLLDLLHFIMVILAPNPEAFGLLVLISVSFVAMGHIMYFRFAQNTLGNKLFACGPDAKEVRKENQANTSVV
# Experiment: Biological in-vitro ferroportin internalization assay (luciferase reporter)
# Assay type: cell-based
# Details: average pEC50; stably-transfected CHO cell line expressing human ferroportin tagged to a luciferase reporter; 6 h incubation with test compound
# Summary of the method: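 Read-out is Nano-Glo luciferase signal after 6 h compound exposure, with average pEC50 derived. Cells are a stable CHO line carrying luciferase-tagged human ferroportin, pre-loaded 24 h with ferric ammonium citrate and doxycycline-induced for 24 h.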
row,SMILES,pEC50
1,"COc1ccc(NC(=O)CN(C)c2nc(-c3cc4ccncc4cn3)nc3c2CCC3)cn1 [Compound 268, N-(6-methoxypyridin-3-yl)-2-{methyl[2-(2,7-naphthyridin-3-yl)-5H,6H,7H-cyclopenta[d]pyrimidin-4-yl]amino}acetamide]",6
2,"CN1CCN(C(=O)CN(C)c2nc(-c3cc4ccccc4cn3)nc3c2CCC3)CC1 [Compound 256, 2-{[2-(isoquinolin-3-yl)-5H,6H,7H-cyclopenta[d]pyrimidin-4-yl](methyl)amino}-1-(4-methylpiperazin-1-yl)ethan-1-one]",6.6
3,"COc1ccc2c(c1)CCN(c1nc(-c3ccccn3)nc3c1CCC3)CC2 [Compound 2, 7-methoxy-3-[2-(pyridin-2-yl)-5H,6H,7H-cyclopenta[d]pyrimidin-4-yl]-2,3,4,5-tetrahydro-1H-3-benzazepine]",6.6
4,"CN(CC(=O)NC(C)(C)C)c1nc(-c2cc(CCO)ccn2)nc2c1CCC2 [Compound 113, N-tert-butyl-2-({2-[4-(2-hydroxyethyl)pyridin-2-yl]-5H,6H,7H-cyclopenta[d]pyrimidin-4-yl}(methyl)amino)acetamide]",7.7
5,"Cc1ccnc(-c2nc3c(c(N4CC(C(=O)NC5CCCCC5)C4)n2)CCC3)c1 [Compound 30, N-cyclohexyl-1-[2-(4-methylpyridin-2-yl)-5H,6H,7H-cyclopenta[d]pyrimidin-4-yl]azetidine-3-carboxamide]",5.7
6,"CN(CC(=O)NC(C)(C)C)c1nc(-c2cc(OCC3CC3)ccn2)nc2c1CCC2 [Compound 159, N-tert-butyl-2-({2-[4-(cyclopropylmethoxy)pyridin-2-yl]-5H,6H,7H-cyclopenta[d]pyrimidin-4-yl}(methyl)amino)acetamide]",8.0
7,"COCc1ccnc(-c2nc3c(c(N(C)CC(=O)NC(C)(C)C)n2)CCC3)c1 [Compound 35, N-tert-butyl-2-({2-[4-(methoxymethyl)pyridin-2-yl]-5H,6H,7H-cyclopenta[d]pyrimidin-4-yl}(methyl)amino)acetamide]",7
8,"CN(CC(=O)NCc1ccccc1)c1nc(-c2ccccn2)nc2c1CCC2 [Compound 27, N-benzyl-2-{methyl[2-(pyridin-2-yl)-5H,6H,7H-cyclopenta[d]pyrimidin-4-yl]amino}acetamide]",6.8
9,"CSCC[C@H](C(=O)NC(C)(C)C)N(C)c1nc(-c2ccccn2)nc2c1CCC2 [Compound 116, (2R)—N-tert-butyl-2-{methyl[2-(pyridin-2-yl)-5H,6H,7H-cyclopenta[d]pyrimidin-4-yl]amino}-4-(methylsulfanyl)butanamide]",7.4
10,"CN(CC(=O)NC(C)(C)C)c1nc(-c2cc(C#N)ccn2)nc2c1CCC2 [Compound 158, N-tert-butyl-2-{[2-(4-cyanopyridin-2-yl)-5H,6H,7H-cyclopenta[d]pyrimidin-4-yl](methyl)amino}acetamide]",6.2
11,"COc1ccc(NC(=O)CN(C)c2nc(-c3cc(OCCO)ccn3)nc3c2CCC3)cn1 [Compound 187, 2-({2-[4-(2-hydroxyethoxy)pyridin-2-yl]-5H,6H,7H-cyclopenta[d]pyrimidin-4-yl}(methyl)amino)-N-(6-methoxypyridin-3-yl)acetamide]",7.9

# Further lines, results first:
row,pEC50,SMILES
1,7.4,"C[C@H](CN(C)C)Oc1ccnc(-c2nc3c(c(N(C)CC(=O)NC4(C(F)(F)F)CC4)n2)CCC3)c1 [Compound 486, 2-{[2-(4-{[(2R)-1-(dimethylamino)propan-2-yl]oxy}pyridin-2-yl)-5H,6H,7H-cyclopenta[d]pyrimidin-4-yl](methyl)amino}-N-[1-(trifluoromethyl)cyclopropyl]acetamide]"
2,7.5,"CC(C)NC(=O)CN(C)c1nc(-c2cc(OCCN(C)C)ccn2)nc2c1CCC2 [Compound 428, 2-[(2-{4-[2-(dimethylamino)ethoxy]pyridin-2-yl}-5H,6H,7H-cyclopenta[d]pyrimidin-4-yl)(methyl)amino]-N-(propan-2-yl)acetamide]"
3,7.3,"CNCCCc1ccnc(-c2nc3c(c(N(C)CC(=O)NC(C)(C)C)n2)CCC3)c1 [Compound 480, N-tert-butyl-2-[methyl(2-{4-[3-(methylamino)propyl]pyridin-2-yl}-5H,6H,7H-cyclopenta[d]pyrimidin-4-yl)amino]acetamide]"
4,7.9,"CN(CC(=O)NC(C)(C)C)c1nc(-c2cc(O[C@@H]3CCOC3)ccn2)nc2c1CCC2 [Compound 318, N-tert-butyl-2-[methyl(2-{4-[(3R)-oxolan-3-yloxy]pyridin-2-yl}-5H,6H,7H-cyclopenta[d]pyrimidin-4-yl)amino]acetamide]"
5,7.9,"Cc1ccc(NC(=O)CN(C)c2nc(-c3cc(OCC(C)(C)O)ccn3)nc3c2CCC3)cn1 [Compound 302, 2-({2-[4-(2-hydroxy-2-methylpropoxy)pyridin-2-yl]-5H,6H,7H-cyclopenta[d]pyrimidin-4-yl}(methyl)amino)-N-(6-methylpyridin-3-yl)acetamide]"
6,7.2,"CN(C)CCOc1ccnc(-c2nc3c(c(N(CC(=O)NC(C)(C)C)CC(F)(F)F)n2)CCC3)c1 [Compound 470, N-tert-butyl-2-[(2-{4-[2-(dimethylamino)ethoxy]pyridin-2-yl}-5H,6H,7H-cyclopenta[d]pyrimidin-4-yl)(2,2,2-trifluoroethyl)amino]acetamide]"
7,8.1,"CN(CC(=O)Nc1ccc(C2CC2)nc1)c1nc(-c2cc(OCCO)ccn2)nc2c1CCC2 [Compound 308, N-(6-cyclopropylpyridin-3-yl)-2-({2-[4-(2-hydroxyethoxy)pyridin-2-yl]-5H,6H,7H-cyclopenta[d]pyrimidin-4-yl}(methyl)amino)acetamide]"
8,7.9,"CN(C)CCOc1ccnc(-c2nc3c(c(N(C)CC(=O)Nc4cccc(F)c4)n2)CCC3)c1 [Compound 294, 2-[(2-{4-[2-(dimethylamino)ethoxy]pyridin-2-yl}-5H,6H,7H-cyclopenta[d]pyrimidin-4-yl)(methyl)amino]-N-(3-fluorophenyl)acetamide]"
9,7.9,"CC(C)NC(=O)[C@@H](C)N(C)c1nc(-c2cc(O[C@@H]3CCN(C)C3)ccn2)nc2c1CCC2 [Compound 504, (2R)-2-{methyl[2-(4-{[(3R)-1-methylpyrrolidin-3-yl]oxy}pyridin-2-yl)-5H,6H,7H-cyclopenta[d]pyrimidin-4-yl]amino}-N-(propan-2-yl)propanamide]"
10,6.8,"CN(Cc1ncnn1-c1cccc(F)c1)c1nc(-c2cc(OCCO)ccn2)nc2c1CCC2 [Compound 315, 2-({2-[4-({[1-(3-fluorophenyl)-1H-1,2,4-triazol-5-yl]methyl}(methyl)amino)-5H,6H,7H-cyclopenta[d]pyrimidin-2-yl]pyridin-4-yl}oxy)ethan-1-ol]"
11,6.6,"CN(CC(=O)NC(C)(C)C)c1nc(-c2cc(OCC(C)(C)O)ccn2)nc2c1C(=O)CC2 [Compound 492, N-tert-butyl-2-({2-[4-(2-hydroxy-2-methylpropoxy)pyridin-2-yl]-5-oxo-5H,6H,7H-cyclopenta[d]pyrimidin-4-yl}(methyl)amino)acetamide]"
12,7.2,"CN(CC(=O)NC(C)(C)C)c1nc(-c2cc(OCCN)ccn2)nc2c1CCC2 [Compound 483, 2-({2-[4-(2-aminoethoxy)pyridin-2-yl]-5H,6H,7H-cyclopenta[d]pyrimidin-4-yl}(methyl)amino)-N-tert-butylacetamide]"
